In US5068248A, “N-alkenyl-3-hydroxybenzo[b]thiophene-2-carboxamide derivatives as dual cyclooxygenase and lipoxygenase inhibitors” (Merck & Co., Inc., priority 1989, dated 1991):
Where two headings read alike, the source gives them in different places.

How the values were obtained:
[1] = tested on: PAF-induced hyperalgesia; experiment: Platelet Activating Factor (PAF) Induced Hyperalgesia in the Rat; format: in vivo, female Sprague-Dawley rats; details: for responders at 30 mg/kg: Rattus norvegicus, read-out: % Rats Exhibiting Analgesia; for Effect in PAF-induced hyperalgesia assay: p.o.; for Vocalization Threshold: mean in inflamed paw 3 hr after PAF; for % Analgesia: percentage of animals with V.T. greater than 200% of vehicle-treated controls
Protocol: 1. Platelet Activating Factor. Induced Hyperalgesia in the Rat.
Groups of 10 female Sprague-Dawley rats, 35-50 g (Taconic Farms), were fasted overnight prior to testing. Hyperalgesia was induced in the rat by the subplantar injection of 1 ug PAF in physiological saline. Pain threshold was measured by applying pressure to the plantar surface of the hindpaw by means of a compressed air driven piston with a 2 mm tip. Vocalization thresholds were obtained 3 hr after injection of the PAF. Compounds, prepared at various doses in 1% methylcellulose suspension, were administered perorally 30 min before PAF. For each drug treatment group, animals with response pressures in the inflamed paw of 200% of control was considered to be analgesic. The mean vocalization threshold for each group was also calculated.

[2] = tested on: PBQ-induced writhing; experiment: Phenylbenzoquinone (PBQ)-induced writhing in the Mouse; format: in vivo, female mice (CD-1); details: for ED50: Mus musculus, po; for % Inhibition: writhing
Protocol: 2. PHENYLBENZOQUINONE (PBQ)-induced writhing in the Mouse […] Groups of 10 female mice (CD-1, Charles River Breeding Laboratories), weighing 20-25 g were fasted overnight prior to experiments. […] The number of writhes for each animal was recorded and the group means and standard errors were calculated. The means obtained from the drug treated groups were compared to the vehicle control means values and percent inhibition of writhing was calculated. ED50 values were calculated by regression analysis.

[3] = tested on: adjuvant-induced arthritis (Mycobacterium butyricum); experiment: Developing Adjuvant-Induced Arthritis Assay in the Lewis Rat; format: in vivo, Female Lewis rats; parameters: Foot Swelling-Day 14: unit not given here; details: for Adrenal Weight / Change Body Weight 0-21 days / Foot Swelling-Day 14 / Foot Swelling-Day 21 / Thymus Weight: mean ± SEM; for Bone/Cartilage Destruction Score: score 0-3, 0 = 0 destruction, 3 = Maximum destruction; for Protection from bone/cartilage (hard tissue) destruction, X-ray: day 21, hindpaw joints, Compound A 3.0 and 10 mg/kg/day, Indomethacin 1 mg/kg/day
Protocol: 3. Adjuvant Arthritis Assay
During the development of adjuvant arthritis, the rats lose body weight, the thymus gland involutes and the adrenal gland weight increases.
Female Lewis rats (purchased from Charles River, Wilmington, MA) were sorted into groups of ten in the weight range 160-199 g. The rats were sensitized to Mycobacterium butyricum (Difco) by the subplantar injection of 0.1 ml light mineral oil (Lubinol, Purepac Pharmaceutical Co., Elizabeth, NJ) containing 0.5 mg of the Mycobacterium into the left hindpaw. The Mycobacterium suspension was prepared by grinding in a glass mortar followed by the addition of the appropriate volume of light mineral oil. The suspension was transferred to a glass vial and stirred for 15 minutes on a magnetic stirrer to obtain a uniform suspension. After sensitization the rats were returned to metronic wire-bottomed cages and allowed food and water ad libitum with the food placed on the bottom of the cages for easy access. […] Rats received compound daily perorally as a suspension in 0.25% agar starting on the day of sensitization. Disease was quantitated by measuring the volume of the noninjected hindpaw by mercury displacement on days 0, 14 and 21. On day 21 (at the termination of the experiment) x-rays of the noninjected hindpaw were taken using a Phillips dental x-ray machine. Total body weight was determined on days 0 and 21 and at the termination of the experiment the thymus was removed and weighed. The statistical significance of the data was determined using Students t test.

[4] = tested on: indomethacin-induced gastric lesions; format: in vivo, Male Sprague-Dawley rats; details: for No. Gastric Lesions: Mean + S.E.M.
Protocol: Male Sprague-Dawley rats, 130-150 g each, were sorted into groups for assay. The rats were fasted for 24 hours.
Several hours after the administration of compound A, the animals are sacrificed, the stomachs removed, excises along the inner curvature, washed carefully with cool tap water and placed in 0.9% saline. When all groups have been processed, the mucosal region of the stomachs are examined under a magnifying lens and scored according to the total number of lesions present. Group scores represent the mean score of animals in that group. The effect of Compound A on indomethacin-induced gastric lesions is shown below in Table 6: […]

[5] = tested on: gastric acid secretion / gastric cytoprotection; details: S. Szabo et al., Experimentia, 38, 254, 1982; cited from earlier work
[6] = Platelet, po, 3 h, Table 2, 30 mg/kg p.o.

SMILES: CC(=O)Oc1ccccc1C(=O)O [Aspirin, reference compound]
- % Rats Exhibiting Analgesia ([1]; Table 2, 100 mg/kg p.o.): 10%

SMILES: CC(C(=O)O)c1ccc2oc(-c3ccc(Cl)cc3)nc2c1 (stereo not shown) [Benoxaprofen, reference compound]
- responders at 30 mg/kg [1, 6]: 10%
- Effect in PAF-induced hyperalgesia assay ([1]; rat): completely ineffective

SMILES: O=C(NC=C(c1ccccc1)c1cccs1)c1sc2ccc(C(F)(F)F)cc2c1O [Compound A, 3-hydroxy-5-trifluoromethyl-N-[2-phenyl-2-(2-thienyl)]-benzo[b]thiophene-2-carboxamide]
- ED50 ([1]; Platelet, po, 3 h, rat, dose required to raise VT to greater than 200% of vehicle-treated control in 50% of animals, confidence limits 0.11-0.3): 0.19 mg/kg
- % Rats Exhibiting Analgesia ([1]; Table 2, 0.1 mg/kg p.o.): 50%
- Vocalization Threshold ([1]; rat, 0.001 mg/kg p.o. 30 min before PAF): 10.2 mmHg
- % Analgesia ([1]; rat, 0.001 mg/kg p.o.): 10%
- Vocalization Threshold ([1]; rat, 0.01 mg/kg p.o. 30 min before PAF): 13.3 mmHg
- % Analgesia ([1]; rat, 0.01 mg/kg p.o.): 25%
- Vocalization Threshold ([1]; rat, 0.03 mg/kg p.o. 30 min before PAF): 13.0 mmHg
- % Analgesia ([1]; rat, 0.03 mg/kg p.o.): 30%
- Vocalization Threshold ([1]; rat, 0.1 mg/kg p.o. 30 min before PAF): 16.9 mmHg
- % Analgesia ([1]; rat, 0.1 mg/kg p.o.): 50%
- Vocalization Threshold ([1]; rat, 0.3 mg/kg p.o. 30 min before PAF): 17.6 mmHg
- % Analgesia ([1]; rat, 0.3 mg/kg p.o.): 50%
- Vocalization Threshold ([1]; rat, 1.0 mg/kg p.o. 30 min before PAF): 20.1 mmHg
- % Analgesia ([1]; rat, 1.0 mg/kg p.o.): 67%
- Vocalization Threshold ([1]; rat, 3.0 mg/kg p.o. 30 min before PAF): 18.3 mmHg
- % Analgesia ([1]; rat, 3.0 mg/kg p.o.): 70%
- ED50 [2]: 1 mg/kg
- Analgesic activity compared with standard drugs ([2]; mouse, PBQ writhing, p.o.): equivalent to piroxicam and greater than ibuprofen
- % Inhibition ([2]; mouse, 0.1 mg/kg p.o. 1 hr before PBQ): 9 ± 3%
- % Inhibition ([2]; mouse, 0.3 mg/kg p.o. 1 hr before PBQ): 10 ± 5%
- % Inhibition ([2]; mouse, 1.0 mg/kg p.o. 1 hr before PBQ): 39 ± 13%
- % Inhibition ([2]; mouse, 3.0 mg/kg p.o. 1 hr before PBQ): 78 ± 7%
- % Inhibition Foot Swelling-Day 14 ([3]; 3.0 mg/kg/day P.O.): 56%
- % Inhibition Foot Swelling-Day 21 ([3]; 3.0 mg/kg/day P.O.): 43%
- Adrenal Weight ([3]; 3.0 mg/kg/day P.O.): 74.6 ± 3.3 mg
- Change Body Weight 0-21 days ([3]; 3.0 mg/kg/day P.O.): -14.7 ± 3.2 gm
- Foot Swelling-Day 14 ([3]; 3.0 mg/kg/day P.O.): 449 ± 83
- Foot Swelling-Day 21 ([3]; 3.0 mg/kg/day P.O.): 921 ± 125
- Thymus Weight ([3]; 3.0 mg/kg/day P.O.): 161.0 ± 17.7 mg
- Bone/Cartilage Destruction Score ([3]; 3.0 mg/kg/day P.O.): 2.6
- Effect on thymus weight loss ([3]; 10 mg/kg/day): inhibited the loss in weight of the thymus
- % Inhibition Foot Swelling-Day 14 ([3]; 10.0 mg/kg/day P.O.): 73%
- % Inhibition Foot Swelling-Day 21 ([3]; 10.0 mg/kg/day P.O.): 66%
- Adrenal Weight ([3]; 10.0 mg/kg/day P.O.): 91.8 ± 2.7 mg
- Change Body Weight 0-21 days ([3]; 10.0 mg/kg/day P.O.): -12.2 ± 2.9 gm
- Foot Swelling-Day 14 ([3]; 10.0 mg/kg/day P.O.): 279 ± 39
- Foot Swelling-Day 21 ([3]; 10.0 mg/kg/day P.O.): 554 ± 67
- Thymus Weight ([3]; 10.0 mg/kg/day P.O.): 241.5 ± 17.1 mg
- Bone/Cartilage Destruction Score ([3]; 10.0 mg/kg/day P.O.): 1.1
- Effect on body weight loss ([3]; both dose levels (3.0 and 10 mg/kg/day)): significantly inhibited body weight loss
- Inhibition of swelling of the noninjected hindpaw ([3]; chronic (21 days)): marked inhibition of swelling of the noninjected hindpaw
- Protection from bone/cartilage (hard tissue) destruction, X-ray [3]: protection of the bone and cartilage destruction was only seen at the 10 mg/kg day dose level
- ED50 ([3]; po, 336 h, rat, p.o., swelling of noninjected hindpaw, day 14): 3 mg/kg
- % Inhibition of Lesions ([4]; 0.1 mg/kg P.O.): 47%
- No. Gastric Lesions ([4]; 0.1 mg/kg P.O., indomethacin-induced (10 mg/kg)): 6.7 ± 4.1
- % Inhibition of Lesions ([4]; 0.3 mg/kg P.O.): 60%
- No. Gastric Lesions ([4]; 0.3 mg/kg P.O., indomethacin-induced (10 mg/kg)): 5.0 ± 3.1
- % Inhibition of Lesions ([4]; 1.0 mg/kg P.O.): 52%
- No. Gastric Lesions ([4]; 1.0 mg/kg P.O., indomethacin-induced (10 mg/kg)): 6.1 ± 5.5
- % Inhibition of Lesions ([4]; 10.0 mg/kg P.O.): 81%
- No. Gastric Lesions ([4]; 10.0 mg/kg P.O., indomethacin-induced (10 mg/kg)): 2.4 ± 1.1

SMILES: O=C(O)c1cc(-c2ccc(F)cc2F)ccc1O [Diflunisal, reference compound]
- responders at 30 mg/kg [1, 6]: 10%

SMILES: CC(C)Cc1ccc(C(C)C(=O)O)cc1 (stereo not shown) [Ibuprofen, reference compound]
- responders at 30 mg/kg [1, 6]: 10%
- Effect in PAF-induced hyperalgesia assay ([1]; rat): completely ineffective
- ED50 [2]: 9 mg/kg

SMILES: COc1ccc2c(c1)c(CC(=O)O)c(C)n2C(=O)c1ccc(Cl)cc1 [Indomethacin, reference compound]
- % Rats Exhibiting Analgesia ([1]; Table 2, 10 mg/kg p.o.): 10%
- Effect in PAF-induced hyperalgesia assay ([1]; rat): completely ineffective
- % Inhibition Foot Swelling-Day 14 ([3]; 1.0 mg/kg/day P.O.): 87%
- % Inhibition Foot Swelling-Day 21 ([3]; 1.0 mg/kg/day P.O.): 88%
- Adrenal Weight ([3]; 1.0 mg/kg/day P.O.): 82.7 ± 2.8 mg
- Change Body Weight 0-21 days ([3]; 1.0 mg/kg/day P.O.): 0.7 ± 3.4 gm
- Foot Swelling-Day 21 ([3]; 1.0 mg/kg/day P.O.): 190 ± 38
- Thymus Weight ([3]; 1.0 mg/kg/day P.O.): 359.6 ± 17.9 mg
- Bone/Cartilage Destruction Score ([3]; 1.0 mg/kg/day P.O.): 0.1
- Protection from bone/cartilage (hard tissue) destruction, X-ray [3]: virtually complete protection from hard tissue destruction
- No. Gastric Lesions ([4]; indomethacin alone 10.0 mg/kg P.O.): 12.6 ± 4.4

SMILES: COc1ccc2cc([C@H](C)C(=O)O)ccc2c1 [Naproxen, reference compound]
- % Rats Exhibiting Analgesia ([1]; Table 2, 30 mg/kg p.o.): 10%

SMILES: CN1C(C(=O)Nc2ccccn2)=C(O)c2ccccc2S1(=O)=O [Piroxicam, reference compound]
- responders at 30 mg/kg [1, 6]: 0%
- Effect in PAF-induced hyperalgesia assay ([1]; rat): completely ineffective
- ED50 [2]: 2 mg/kg

SMILES: CC1=C(CC(=O)O)c2cc(F)ccc2/C1=C\c1ccc([S+](C)[O-])cc1 (stereo not shown) [Sulindac, reference compound]
- responders at 30 mg/kg [1, 6]: 10%

SMILES: CCCCC[C@H](O)/C=C/[C@@H]1[C@@H](C/C=C\CCCC(=O)O)[C@H](O)C[C@H]1O [protaglandin F2B]
- Gastric cytoprotection [5]: does induce gastric cytoprotection
- Inhibition of gastric acid secretion [5]: does not inhibit gastric acid secretion
